Legend:
[1] = tested on: picrylsulfonic acid (TNBS)-caused colitis; assay: Picrylsulfonic acid (TNBS)-caused colitis model; type: in vivo, Syrian strain male hamster; details: for area of the ulcer: once a day before cause, then twice a day, anatomized 5 days later, FIG. 3; for amount of the haemoglobin (index of the enteric hemorrhage): supernatant of washing of large intestine, 5 days later, FIG. 4
Method: (2) Picrylsulfonic Acid (TNBS)-Caused Colitis Model.
After 90 mg/ml of TNBS/isotonic solution (with 15 vol % ethanol) liquor (0.1 ml/body) is injected from anus of Syrian strain male hamster (7 weeks of ages) into large intestine with a flexible, oral sonde for rat, colitis was caused by clipping anus for 30 minutes. Distilled water was similarly injected into a normal group.
0.5% CMC (10 ml/kg) was orally administered to the normal group and the control group, and 25, 50 and 100 mg/10 ml/kg doses of a test drug suspended into 0.5% CMC were orally administered to the group administrated test drug once a day before cause of colitis and twice a day until the day of cause before anatomy, respectively.
They were anatomized 5 days later, and large intestines of 3 cm length were sampled from anus. Then, these intestinals were incised, and these enterics were washed by physiological salt solution (2 ml). they were taken a picture of incised large intestines, and ulcer area (cm^2) was calculated by the image analysis. Moreover, the supernatant of washing of large intestine was supplied to the measurement of the amount of the haemoglobin (index of the amount of the enteric hemorrhage).
As a test drug, compound 34 was used as well as example (1). FIG. 3 and FIG. 4 show the results.

[2] = tested on: acetate-caused colitis; assay: Acetate-caused colitis model; type: in vivo, Syrian strain male hamster; details: for area of ulcer: three times (18 h and 1 h before, 6 h after cause of colitis), anatomized 24 hours later, FIG. 1; for amount of the haemoglobin (index of the enteric hemorrhage): three times, washing supernatant of large intestine, 24 hours later, FIG. 2
Method: (1) Acetate-Caused Colitis Model.
After 1% aqueous acetic acid (10 ml/kg) is injected from anus of Syrian strain male hamster (7 weeks of ages) into large intestine with a flexible, oral sonde for rat, colitis was caused by clipping anus for 30 minutes. Distilled water was similarly injected into a normal group.
0.5% CMC (10 ml/kg) was orally administered to the normal group and the control group, and 10, 30 and 100 mg/10 ml/kg of a test drug suspended into 0.5% CMC were orally administered to the group administrated test drug three times in total, 18 hours and 1 hour before cause of colitis and 6 hours after cause, respectively.
They were anatomized 24 hours later, and large intestines of 7 cm length were sampled from anus. Then, these intestinals were incised, and these enterics were washed by physiological salt solution (5 ml). they were taken a picture of incised large intestines, and ulcer area (cm^2) was calculated by the image analysis. Moreover, the washing supernatant of large intestine was supplied for the measurement of the amount of the haemoglobin (index of the amount of the enteric hemorrhage).
As a test drug, 2-[5-amino-6-oxo-2-phenyl-1,6-dihydro-1-pyrimidinyl]-N-[1-[[5-(t-butyl)-1,3,4-oxadiazole-2-yl]carbonyl]-2-methylpropyl]acetamide (Compound 34) was used. FIG. 1 and FIG. 2 show the results.

CC(C)C(NC(=O)Cn1c(-c2ccccc2)ncc(N)c1=O)C(=O)c1nnc(C(C)(C)C)o1 (centres unmarked) [compound 34, 2-[5-amino-6-oxo-2-phenyl-1,6-dihydro-1-pyrimidinyl]-N-[1-[[5-(t-butyl)-1,3,4-oxadiazole-2-yl]carbonyl]-2-methylpropyl]acetamide]
intentionally suppressed: area of the ulcer ([1]; 50 mg/kg orally) | amount of the haemoglobin (index of the enteric hemorrhage) ([1]; 50 mg/kg orally) | area of the ulcer ([1]; 100 mg/kg orally) | amount of the haemoglobin (index of the enteric hemorrhage) ([1]; 100 mg/kg orally) | area of ulcer ([2]; 30 mg/kg orally) | amount of the haemoglobin (index of the enteric hemorrhage) ([2]; 30 mg/kg orally) | area of ulcer ([2]; 100 mg/kg orally) | amount of the haemoglobin (index of the enteric hemorrhage) ([2]; 100 mg/kg orally)

Reference: US20030212115A1, “Remedies for inflammatory bowel diseases” (priority 2000, published 2003)
